In patent publication US7897593B2, “HIV integrase inhibitors” (priority 2006, dated 2011):

Tests used:
[1] = system: recombinant NL-Rluc virus; experiment: Inhibition of HIV replication; type: cell-based; conditions: Human immunodeficiency virus 1, read-out: Antiviral Activity, NL-RLuc virus; three serum conditions described, the one tabulated is not stated
HIV-integrase = biological target: T1, HIV-integrase (Human immunodeficiency virus type 1 group M subtype B, UniProt P12497); experiment: HIV-Integrase Inhibition Activity (SPA strand transfer assay); type: biochemical; conditions: recombinant integrase, SPA beads, P33 labeled target DNA
T1 construct: Recombinant integrase (0.26 ng) was incubated with the beads
Experimental: HIV-Integrase InhibitionActivity. To evaluate in-vitro activity against HIV-integrase, 5 pmole of biotin labeled substrate DNA was bound to 100 μg of Streptavidin coated PVT SPA beads (Amersham Pharmacia Biotech). Recombinant integrase (0.26 ng) was incubated with the beads for 90 min at 37° C. Unbound enzyme was removed by washing the complex followed by addition of inhibitors and 0.1 fmol of P33 labeled target DNA. The reaction was stopped by adding EDTA to a final concentration of 10 mM. Samples were counted in TopCountNXT (Packard) and the CPM was used as a measure of integration. The reaction condition was as described in A. Engelman and R. Craigie, J. Virol 69, 5908-5911 (1995). The sequences of substrate and target DNA were described in Nucleic Acid Research 22, 1121-1122 (1994). Activity equal to A refers to a compound having IC50=0.001 to 0.01 μM B=0.01-0.1, and C≧0.1 μM respectively.

| SMILES | EC50 [1] | IC50 (HIV-integrase) |
| --- | --- | --- |
| Cc1ncnn1-c1cc(F)ccc1CNC(=O)c1nc2n(c(=O)c1O)CCOC21CCN(C(=O)C(=O)N(C)C)C1 (stereo not drawn) [Example 41, 1′-(2-(Dimethylamino)-2-oxoacetyl)-N-(4-fluoro-2-(5-methyl-1H-1,2,4-triazol-1-yl)benzyl)-3-hydroxy-4-oxo-6,7-dihydro-4H-spiro[pyrimido[2,1-c][1,4]oxazine-9,3′-pyrrolidine]-2-carboxamide] | > 100 nM | 10 to 100 nM |
| Cc1ccc(S(=O)(=O)N2CCC3(CC2)OCCn2c3nc(C(=O)NC(C)c3ccc(F)cc3)c(O)c2=O)cc1 (stereo not drawn) [Example 13] | 10 to 100 nM | 10 to 100 nM |
| CN(C)C(=O)N1CCC2(CC1)OCCn1c2nc(C(=O)NCc2ccc(F)cc2-n2cncn2)c(O)c1=O [Example 5] | 1 to 10 nM | 1 to 10 nM |
| COC(=O)N1CCC2(CC1)OCCn1c2nc(C(=O)NCc2ccc(F)cc2)c(O)c1=O [Example 4] | 1 to 10 nM | 1 to 10 nM |
| Cc1ncnn1-c1cc(F)ccc1CNC(=O)c1nc2n(c(=O)c1O)CCOC21CCN(C(=O)OC(C)C)C1 (stereo not drawn) [Example 43, Isopropyl 2-(4-fluoro-2-(5-methyl-1H-1,2,4-triazol-1-yl)benzylcarbamoyl)-3-hydroxy-4-oxo-6,7-dihydro-4H-spiro[pyrimido[2,1-c][1,4]oxazine-9,3′-pyrrolidine]-1′-carboxylate] | 10 to 100 nM | 10 to 100 nM |
| COC(=O)N1CCC2(CC1)OCCn1c2nc(C(=O)NCc2ccc(F)cc2-n2cncn2)c(O)c1=O [Example 3] | 1 to 10 nM | 1 to 10 nM |
| Cc1ccc(S(=O)(=O)N2CCC3(CC2)OCCn2c3nc(C(=O)NCc3ccc(F)cc3-n3nc(C)nc3C)c(O)c2=O)cc1 [Example 17] | 1 to 10 nM | 10 to 100 nM |
| Cc1ccc(F)cc1S(=O)(=O)N1CCC2(CC1)OCCn1c2nc(C(=O)NCc2ccc(F)cc2)c(O)c1=O [Example 18] | 1 to 10 nM | 1 to 10 nM |
| CS(=O)(=O)N1CCC2(CC1)OCCn1c2nc(C(=O)NCc2ccc(F)cc2)c(O)c1=O [Example 8] | 1 to 10 nM | 1 to 10 nM |
| CC1CN(S(=O)(=O)c2cc(F)ccc2CNC(=O)c2nc3n(c(=O)c2O)CCCOC32CCN(C(=O)OCc3ccccc3)CC2)CC(C)N1 (stereo not drawn) [Example 49] | 10 to 100 nM | 10 to 100 nM |
| CS(=O)(=O)N1CCC2(CC1)OCCn1c2nc(C(=O)NCc2ccc(F)cc2-n2cncn2)c(O)c1=O [Example 7] | 1 to 10 nM | 1 to 10 nM |
| CN1CCN(S(=O)(=O)c2cc(F)ccc2CNC(=O)c2nc3n(c(=O)c2O)CCCOC32CCN(C(=O)OCc3ccccc3)CC2)CC1 [Example 50] | 10 to 100 nM | 10 to 100 nM |
| CS(=O)(=O)N1CCC2(C1)OCCn1c2nc(C(=O)NCc2ccc(F)cc2)c(O)c1=O (stereo not drawn) [Example 38, N-(4-Fluorobenzyl)-3-hydroxy-1′-(methylsulfonyl)-4-oxo-6,7-dihydro-4H-spiro[pyrimido[2,1-c][1,4]oxazine-9,3′-pyrrolidine]-2-carboxamide] | 10 to 100 nM | 1 to 10 nM |
| COC(=O)C(=O)N1CCC2(CC1)OCCn1c2nc(C(=O)NCc2ccc(F)cc2-n2ncnc2C)c(O)c1=O [Example 26, Methyl 2-(2′-(4-fluoro-2-(5-methyl-1H-1,2,4-triazol-1-yl)benzylcarbamoyl)-3′-hydroxy-4′-oxo-6′,7′-dihydro-4′H-spiro[piperidine-4,9′-pyrimido[2,1-c][1,4]oxazine]-1-yl)-2-oxoacetate] | 10 to 100 nM | 10 to 100 nM |
| CN(C)C(=O)N1CCC2(CC1)OCCn1c2nc(C(=O)NCc2ccc(F)cc2)c(O)c1=O [Example 6] | 1 to 10 nM | 1 to 10 nM |
| Cc1ncnn1-c1cc(F)ccc1CNC(=O)c1nc2n(c(=O)c1O)CCOC21CCN(C(=O)C(=O)N(C)C)CC1 [Example 27, 1-(2-(Dimethylamino)-2-oxoacetyl)-N-(4-fluoro-2-(5-methyl-1H-1,2,4-triazol-1-yl)benzyl)-3′-hydroxy-4′-oxo-6′,7′-dihydro-4′H-spiro[piperidine-4,9′-pyrimido[2,1-c][1,4]oxazine]-2′-carboxamide] | > 100 nM | 10 to 100 nM |
| CCOC(=O)N1CCC2(CC1)OCCn1c2nc(C(=O)NCc2ccc(F)cc2)c(O)c1=O [Example 31, Ethyl 2′-(4-fluorobenzylcarbamoyl)-3′-hydroxy-4′-oxo-6′,7′-dihydro-4′H-spiro[piperidine-4,9′-pyrimido[2,1-c][1,4]oxazine]-1-carboxylate] | 1 to 10 nM | 1 to 10 nM |
| CC(C)OC(=O)N1CCC2(C1)OCCn1c2nc(C(=O)NCc2ccc(F)cc2)c(O)c1=O (stereo not drawn) [Example 42, Isopropyl 2-(4-fluorobenzylcarbamoyl)-3-hydroxy-4-oxo-6,7-dihydro-4H-spiro[pyrimido[2,1-c][1,4]oxazine-9,3′-pyrrolidine]-1′-carboxylate] | 1 to 10 nM | 1 to 10 nM |
| O=C(NCc1ccc(F)cc1S(=O)(=O)N1CCOCC1)c1nc2n(c(=O)c1O)CCCOC21CCN(C(=O)OCc2ccccc2)CC1 [Example 52] | 10 to 100 nM | 10 to 100 nM |
| Cc1ncnn1-c1cc(F)ccc1CNC(=O)c1nc2n(c(=O)c1O)CCOC21CCN(S(C)(=O)=O)C1 (stereo not drawn) [Example 39, N-(4-Fluoro-2-(5-methyl-1H-1,2,4-triazol-1-yl)benzyl)-3-hydroxy-1′-(methylsulfonyl)-4-oxo-6,7-dihydro-4H-spiro[pyrimido[2,1-c][1,4]oxazine-9,3′-pyrrolidine]-2-carboxamide] | 10 to 100 nM | 10 to 100 nM |
| O=C(NCc1ccc(F)cc1)c1nc2n(c(=O)c1O)CCOC21CCN(C(=O)OCc2ccccc2)CC1 [Example 22] | 1 to 10 nM | 1 to 10 nM |
| O=C(NCc1ccc(F)cc1-n1cncn1)c1nc2n(c(=O)c1O)CCOC21CCN(C(=O)c2ccccc2)CC1 [Example 9] | 1 to 10 nM | 10 to 100 nM |
| Cc1ccc(S(=O)(=O)N2CCC3(CC2)OCCn2c3nc(C(=O)NCc3ccc(F)cc3-n3cnc(C)n3)c(O)c2=O)cc1 [Example 15] | 1 to 10 nM | 10 to 100 nM |
| CCOC(=O)N1CCC2(CC1)OCCn1c2nc(C(=O)NCc2ccc(F)cc2-n2cnc(C)n2)c(O)c1=O [Example 33, Ethyl 2′-(4-fluoro-2-(3-methyl-1H-1,2,4-triazol-1-yl)benzylcarbamoyl)-3′-hydroxy-4′-oxo-6′,7′-dihydro-4′H-spiro[piperidine-4,9′-pyrimido[2,1-c][1,4]oxazine]-1-carboxylate] | 1 to 10 nM | 1 to 10 nM |
| Cc1ccc(F)cc1S(=O)(=O)N1CCC2(CC1)OCCn1c2nc(C(=O)NCc2ccc(F)cc2-n2ncnc2C)c(O)c1=O [Example 21] | 1 to 10 nM | 10 to 100 nM |
| O=C(O)C(=O)N1CCC2(CC1)OCCn1c2nc(C(=O)NCc2ccc(F)cc2)c(O)c1=O [Example 29, 2-(2′-(4-Fluorobenzylcarbamoyl)-3′-hydroxy-4′-oxo-6′,7′-dihydro-4′H-spiro[piperidine-4,9′-pyrimido[2,1-c][1,4]oxazine]-1-yl)-2-oxoacetic acid] | > 100 nM | 1 to 10 nM |
| CNC(=O)c1nc2n(c(=O)c1O)CCOC21CCN(S(=O)(=O)c2cc(F)ccc2C)CC1 [Example 25, 1-(5-Fluoro-2-methylphenylsulfonyl)-3′-hydroxy-N-methyl-4′-oxo-6′,7′-dihydro-4′H-spiro[piperidine-4,9′-pyrimido[2,1-c][1,4]oxazine]-2′-carboxamide] | > 100 nM | ≥ 100 nM |
